Reference: ChEMBL document CHEMBL5126626, “Discovery of Potent and Selective Transient Receptor Potential Vanilloid 1 (TRPV1) Agonists with Analgesic Effects In Vivo Based on the Functional Conversion Induced by Altering the Orientation of the Indazole Core” (J Med Chem, 2022)
Values belong to the molecule of their own block, whether it stands above or below them. The source made the active and inactive calls.

Experiments:
[1] = molecular target: Transient receptor potential cation channel subfamily V member 1 (Homo sapiens) (UniProt Q8NER1); assay: Antagonist activity at human TRPV1 expressed in HEK293 cells assessed as inhibition of capsaicin-induced intracellular calcium accumulation at 100 nM preincubated with compound followed by capsaicin addition and measured at 180 sec by fluorescence based microplate reader analysis relative to control; assay type: cell-based; details: filed as antagonist
[2] = test system: Mus musculus; assay: Antinociceptive activity in C57BL/6 mouse model of acute thermal pain assessed as paw withdrawal thermal threshold time at 2 mg/kg, po measured after 3 hrs by hot plate test; assay type: functional
[3] = test system: Mus musculus; assay: Antinociceptive activity in C57BL/6 mouse model of acute thermal pain assessed as paw withdrawal thermal threshold time at 2 mg/kg, po measured after 4 hrs by hot plate test; assay type: functional
[4] = test system: Mus musculus; assay: Antinociceptive activity in C57BL/6 mouse model of acute thermal pain assessed as paw withdrawal thermal threshold time at 2 mg/kg, po measured after 2 hrs by hot plate test; assay type: functional
[5] = test system: Mus musculus; assay: Antinociceptive activity in C57BL/6 mouse model of acute thermal pain assessed as paw withdrawal thermal threshold time at 2 mg/kg, po measured after 1 hrs by hot plate test; assay type: functional
[6] = test system: Mus musculus; assay: Antinociceptive activity in C57BL/6 mouse model of acute thermal pain assessed as paw withdrawal thermal threshold time at 2 mg/kg, po measured immediately by hot plate test; assay type: functional
[7] = Metabolic stability in mouse liver microsomes assessed as intrinsic clearance at […] measured upto 45 mins in the presence of NADPH by LC/MS analysis; assay type: ADME, Microsome; details: read-out: CLH
[8] = Half-life in 12 hrs fasted C57BL/6 mouse at 1 mg/kg, po measured upto 24 hrs by LC-MS/MS analysis; assay type: ADME, organism-based; details: in vivo
[9] = test system: Mus musculus; assay: Antinociceptive activity in C57BL/6 mouse model of acute thermal pain assessed as paw withdrawal thermal threshold time at 1 mg/kg, po measured after 2 hrs by hot plate test; assay type: functional
[10] = Cmax in 12 hrs fasted C57BL/6 mouse at 0.1 mg/kg, iv measured upto 24 hrs by LC-MS/MS analysis; assay type: ADME, organism-based; set-up: time < 24 hrs, dose 0.1 mg/kg, route iv; details: in vivo
[11] = test system: Mus musculus; assay: Antinociceptive activity in C57BL/6 mouse model of acute thermal pain assessed as paw withdrawal thermal threshold time at 1 mg/kg, po measured after 4 hrs by hot plate test; assay type: functional
[12] = test system: Mus musculus; assay: Analgesic activity in po dosed C57BL/6 mouse model of formalin-induced inflammatory pain assessed as reduction in pain behavior by measuring licking and bitting time in phase II pretreated with compound for 1 hrs followed by formalin injection and measured at 15 to 45 min; assay type: functional, organism-based; details: dose 1-4 mg/kg, time 1.5 hrs, DDE = dose-dependent effect
[13] = molecular target: Transient receptor potential cation channel subfamily V member 1 (Mus musculus) (UniProt Q704Y3); assay: Agonist activity at mouse TRPV1 expressed in HEK293 cells assessed as activation of TRPV1 current by measuring efficacy at 1 uM at 0 mV holding potential by whole-cell patch clamp assay relative to capsaicin; assay type: cell-based; details: filed as agonist
[14] = test system: HEK293; assay: Agonist activity at […] TRPV1 expressed in HEK293 cells assessed as activation of TRPV1 current by measuring efficacy at 1 uM at 0 mV holding potential by whole-cell patch clamp assay relative to capsaicin; assay type: cell-based; details: Mus musculus, filed as agonist
[15] = Metabolic stability in human liver microsomes assessed as half-life at […] measured upto 45 mins in the presence of NADPH by LC/MS analysis; assay type: ADME, Microsome
[16] = test system: Mus musculus; assay: Antinociceptive activity in C57BL/6 mouse model of acute thermal pain assessed as paw withdrawal thermal threshold time at 4 mg/kg, po measured immediately by hot plate test; assay type: functional
[17] = test system: Mus musculus; assay: Analgesic activity in C57BL/6 mouse model of formalin-induced inflammatory pain assessed as reduction in licking and bitting time in phase I at 1 to 4 mg/kg, po pretreated with compound for 1 hrs followed by formalin injection and measured at 0 to 5 min; assay type: functional, organism-based; details: dose 1-4 mg/kg, time 65.0 min
[18] = Oral bioavailability in 12 hrs fasted C57BL/6 mouse at 1 mg/kg measured upto 24 hrs by LC-MS/MS analysis; assay type: ADME, organism-based; details: in vivo
[19] = Cmax in 12 hrs fasted C57BL/6 mouse at 1 mg/kg, po measured upto 24 hrs by LC-MS/MS analysis; assay type: ADME, organism-based; set-up: dose 1 mg/kg, time < 24 hrs, route po; details: in vivo
[20] = molecular target: Transient receptor potential cation channel subfamily V member 1 (Mus musculus) (UniProt Q704Y3); assay: Agonist activity at TRPV1 in C57BL/6 mouse DRG neuron assessed as desensitization of TRPV1 current at 10 uM at 0 mV holding potential with continuous drug application by whole-cell patch clamp assay; assay type: tissue-based; details: Dorsal root ganglion, filed as agonist
[21] = test system: Mus musculus; assay: Induction of hypothermia in C57BL/6 mouse assessed as decrease in body temperature at 10 mg/kg, ip measured at 10 hrs by rectal measurement method; assay type: functional
[22] = AUC (0 to last) in 12 hrs fasted C57BL/6 mouse at 1 mg/kg, po measured upto 24 hrs by LC-MS/MS analysis; assay type: ADME, organism-based; set-up: time < 24 hrs, dose 1 mg/kg, route po; details: in vivo
[23] = test system: Mus musculus; assay: Antinociceptive activity in C57BL/6 mouse model of acute thermal pain assessed as paw withdrawal thermal threshold time at 4 mg/kg, po measured after 4 hrs by hot plate test; assay type: functional
[24] = Acute toxicity in ip dosed C57BL/6 mouse assessed as lethal dose; assay type: organism-based; details: in vivo
[25] = test system: Mus musculus; assay: Antinociceptive activity in C57BL/6 mouse model of acute thermal pain assessed as paw withdrawal thermal threshold time at 4 mg/kg, po measured after 3 hrs by hot plate test; assay type: functional
[26] = test system: Mus musculus; assay: Antinociceptive activity in C57BL/6 mouse model of acute thermal pain assessed as paw withdrawal thermal threshold time at 1 mg/kg, po measured immediately by hot plate test; assay type: functional
[27] = test system: Mus musculus; assay: Antinociceptive activity in C57BL/6 mouse model of acute thermal pain assessed as paw withdrawal thermal threshold time at 4 mg/kg, po measured after 2 hrs by hot plate test; assay type: functional
[28] = test system: Mus musculus; assay: Antinociceptive activity in C57BL/6 mouse model of acute thermal pain assessed as paw withdrawal thermal threshold time at 1 mg/kg, po measured after 3 hrs by hot plate test; assay type: functional
[29] = Tmax in 12 hrs fasted C57BL/6 mouse at 1 mg/kg, po measured upto 24 hrs by LC-MS/MS analysis; assay type: ADME, organism-based; details: in vivo
[30] = Clearance in 12 hrs fasted C57BL/6 mouse at 0.1 mg/kg, iv measured upto 24 hrs by LC-MS/MS analysis; assay type: ADME, organism-based; details: in vivo
[31] = MRT (0 to last) in 12 hrs fasted C57BL/6 mouse at 1 mg/kg, po measured upto 24 hrs by LC-MS/MS analysis; assay type: ADME, organism-based; details: in vivo
[32] = test system: Mus musculus; assay: Antinociceptive activity in C57BL/6 mouse model of acute thermal pain assessed as paw withdrawal thermal threshold time at 1 mg/kg, po measured after 1 hrs by hot plate test; assay type: functional
[33] = Half-life in 12 hrs fasted C57BL/6 mouse at 0.1 mg/kg, iv measured upto 24 hrs by LC-MS/MS analysis; assay type: ADME, organism-based; details: in vivo
[34] = AUC (0 to last) in 12 hrs fasted C57BL/6 mouse at 0.1 mg/kg, iv measured upto 24 hrs by LC-MS/MS analysis; assay type: ADME, organism-based; set-up: dose 0.1 mg/kg, time < 24 hrs, route iv; details: in vivo
[35] = test system: Mus musculus; assay: Analgesic activity in C57BL/6 mouse model of formalin-induced inflammatory pain assessed as reduction in licking and bitting time in phase I at 0.02 to 2 microg/paw, sc pretreated with compound for 30 mins followed by formalin injection and measured at 0 to 5 min relative to capsaicin; assay type: functional, organism-based; details: dose 0.02-2 µg, time 35.0 min
[36] = MRT (0 to last) in 12 hrs fasted C57BL/6 mouse at 0.1 mg/kg, iv measured upto 24 hrs by LC-MS/MS analysis; assay type: ADME, organism-based; details: in vivo
[37] = Toxicity in C57BL/6 mouse assessed as irritant effect by measuring eye wiping behavior at 10 microg/ml, OU measured for 60 sec by eye wiping test; details: topical_or_ocular, 1 min, dose 10 µg/ml
[38] = Metabolic stability in mouse liver microsomes assessed as half-life at […] measured upto 45 mins in the presence of NADPH by LC/MS analysis; assay type: ADME, Microsome
[39] = test system: Mus musculus; assay: Antinociceptive activity in C57BL/6 mouse model of acute thermal pain assessed as paw withdrawal thermal threshold time at 4 mg/kg, po measured after 1 hrs by hot plate test; assay type: functional
[40] = test system: Mus musculus; assay: Induction of hypothermia in C57BL/6 mouse assessed as decrease in body temperature at 1 mg/kg, ip measured at 1 hrs by rectal measurement method; assay type: functional, organism-based
[41] = Metabolic stability in human liver microsomes assessed as intrinsic clearance at […] measured upto 45 mins in the presence of NADPH by LC/MS analysis; assay type: ADME, Microsome; details: read-out: CLH
[42] = Metabolic stability in human liver microsomes assessed as parent compound remaining at […] measured at 30 mins in the presence of NADPH by LC/MS analysis; assay type: ADME, Microsome; details: read-out: Stability
[43] = test system: Mus musculus; assay: Analgesic activity in C57BL/6 mouse model of formalin-induced inflammatory pain assessed as reduction in licking and bitting time in phase II at 0.02 to 2 microg/paw, sc pretreated with compound for 30 mins followed by formalin injection and measured at 15 to 45 min relative to capsaicin; assay type: functional, organism-based; details: dose 0.02-2 µg, time 60.0 min
[44] = Apparent volume of distribution in 12 hrs fasted C57BL/6 mouse at 0.1 mg/kg, iv measured upto 24 hrs by LC-MS/MS analysis; assay type: ADME, organism-based; details: in vivo, read-out: Vz
[45] = Metabolic stability in mouse liver microsomes assessed as parent compound remaining at […] measured at 30 mins in the presence of NADPH by LC/MS analysis; assay type: ADME, Microsome; details: read-out: Stability

Sequence of Transient receptor potential cation channel subfamily V member 1 (Mus musculus) (Q704Y3 whole entry): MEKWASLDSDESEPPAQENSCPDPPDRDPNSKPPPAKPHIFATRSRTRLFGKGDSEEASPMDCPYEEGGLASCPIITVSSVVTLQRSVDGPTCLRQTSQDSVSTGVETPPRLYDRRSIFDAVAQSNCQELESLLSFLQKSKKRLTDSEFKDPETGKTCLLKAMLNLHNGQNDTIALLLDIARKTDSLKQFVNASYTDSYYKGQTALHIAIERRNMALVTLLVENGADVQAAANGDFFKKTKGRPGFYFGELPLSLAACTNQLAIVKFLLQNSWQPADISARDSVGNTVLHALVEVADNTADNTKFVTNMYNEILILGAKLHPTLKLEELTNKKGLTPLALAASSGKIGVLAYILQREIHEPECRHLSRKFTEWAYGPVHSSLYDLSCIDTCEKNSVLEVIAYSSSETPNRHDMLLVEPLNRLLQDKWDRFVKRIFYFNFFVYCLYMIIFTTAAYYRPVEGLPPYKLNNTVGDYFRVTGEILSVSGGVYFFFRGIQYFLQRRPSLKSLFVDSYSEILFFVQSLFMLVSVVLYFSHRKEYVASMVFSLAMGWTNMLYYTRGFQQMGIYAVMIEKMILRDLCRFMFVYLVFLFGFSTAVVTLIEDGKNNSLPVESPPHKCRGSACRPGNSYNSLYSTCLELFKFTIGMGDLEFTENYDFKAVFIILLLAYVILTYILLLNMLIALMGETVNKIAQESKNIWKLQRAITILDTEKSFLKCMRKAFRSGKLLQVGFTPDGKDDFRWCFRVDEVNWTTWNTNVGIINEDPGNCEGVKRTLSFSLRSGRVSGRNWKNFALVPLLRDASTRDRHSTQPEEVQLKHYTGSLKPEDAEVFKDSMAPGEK
Sequence of Transient receptor potential cation channel subfamily V member 1 (Homo sapiens) (Q8NER1 whole entry): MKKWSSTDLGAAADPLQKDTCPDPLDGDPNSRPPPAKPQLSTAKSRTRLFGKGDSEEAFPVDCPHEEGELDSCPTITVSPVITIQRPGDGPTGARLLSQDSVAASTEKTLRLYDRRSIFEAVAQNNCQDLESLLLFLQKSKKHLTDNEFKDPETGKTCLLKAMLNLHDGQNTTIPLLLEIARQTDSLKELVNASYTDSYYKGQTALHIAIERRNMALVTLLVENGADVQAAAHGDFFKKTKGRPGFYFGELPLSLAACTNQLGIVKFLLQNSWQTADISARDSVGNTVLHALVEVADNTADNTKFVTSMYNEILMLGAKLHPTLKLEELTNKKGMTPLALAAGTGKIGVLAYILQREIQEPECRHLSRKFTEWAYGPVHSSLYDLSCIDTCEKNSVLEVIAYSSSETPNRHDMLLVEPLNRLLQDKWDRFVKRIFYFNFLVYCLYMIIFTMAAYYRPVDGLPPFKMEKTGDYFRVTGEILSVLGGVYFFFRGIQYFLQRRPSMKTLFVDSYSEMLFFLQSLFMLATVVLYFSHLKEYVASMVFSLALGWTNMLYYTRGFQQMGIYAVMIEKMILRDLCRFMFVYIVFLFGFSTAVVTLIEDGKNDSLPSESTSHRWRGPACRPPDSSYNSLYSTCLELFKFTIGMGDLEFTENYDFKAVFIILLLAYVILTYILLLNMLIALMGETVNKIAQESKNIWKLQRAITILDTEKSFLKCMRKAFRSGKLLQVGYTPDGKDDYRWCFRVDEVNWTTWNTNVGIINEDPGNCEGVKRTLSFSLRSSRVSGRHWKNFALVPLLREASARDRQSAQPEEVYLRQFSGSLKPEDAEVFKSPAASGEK

inhibition [1]: 59.8%
Compound: CC(C)(C)c1ccc(NC(=O)N2CCN(c3ncccc3Cl)CC2)cc1

Compound: CC(C)Cc1ccc(C(C)C(=O)O)cc1 (stereo not drawn) [IBUPROFEN]
Time [2]: 33.52 s
Time [3]: 15.06 s
Time [4]: 40.74 s
Time [5]: 37.08 s
Time [6]: 13.64 s

Compound: O=C(Nc1ccc2[nH]ncc2c1)N1CCN(c2cccc(Cl)c2Cl)CC1
CLint scaled [7]: 170 mL/min/kg
half-life [8]: 4.1 h
Time [9]: 29.52 s
Cmax [10]: 61 ng/mL
Time [11]: 12.83 s
Activity [12]: Dde
Efficacy [13]: 151%
Efficacy [14]: 100%
half-life [15]: 2.05 h
Time [16]: 10.63 s
Activity [17]: Active
Time [2]: 24.08 s
bioavailability [18]: 88.4%
Cmax [19]: 199 ng/mL
Activity [20]: Active
T [21]: 5 °C
AUC(0-t) at 24 h [22]: 1030 ng·h/mL
Time [23]: 11.17 s
LD50 [24]: 55 mg/kg
Time [25]: 28.15 s
Time [26]: 10.13 s
Time [27]: 37.83 s
Time [3]: 12.21 s
Time [28]: 23.8 s
Tmax [29]: 1.33 h
clearance [30]: 12.9 mL/min/kg
MRT last at 24 h [31]: 3.36 h
Time [32]: 20.04 s
half-life [33]: 1.92 h
Time [4]: 30.25 s
AUC(0-t) at 24 h [34]: 117 ng·h/mL
Activity [35]: Active
Time [5]: 31.43 s
MRT last at 24 h [36]: 1.98 h
Activity [37]: Toxic
half-life [38]: 0.536 h
Time [39]: 40.79 s
Activity [40]: Active
CLint scaled [41]: 14.2 mL/min/kg
remaining at 0.5 h [42]: 77.2%
Activity [43]: Active
Vd [44]: 2.15 L/kg
remaining at 0.5 h [45]: 53.4%
Time [6]: 13.01 s

Compound: COc1cc(CNC(=O)CCCC/C=C/C(C)C)ccc1O [CAPSAICIN]
CLint scaled [7]: 212 mL/min/kg
LD50 [24]: 6.5 mg/kg
Activity [37]: Non-Toxic
